Measured values reported in patent US9393288B2, “Methods of treating diseases associated with PPARγ” (The University of Vermont and State Agricultural College, priority 2012, dated 2016).

Legend:
Assay type in all cases: in vivo, rat
[1] = tested on: PPARγ target genes; assay: PPARγ target gene expression (real-time qPCR) in adipose tissue, pial arteries and PA, NP Sprague Dawley rats
Source text: (§1) Animals and Treatment Groups: All procedures were approved by the Institutional Animal Care and Use Committee and conducted in accordance with the National Institutes of Health Guide for the Care and Use of Laboratory Animals. Female virgin NP Sprague Dawley rats (250-300 g, 14-16 weeks, Charles River, Canada) were used for all experiments and housed in the University of Vermont Animal Care Facility. Animals were randomly selected and grouped as untreated (N=4), treated with recombinant human relaxin-2 (relaxin, 4 μg/hr; N=14), relaxin plus a specific PPARγ inhibitor GW9662 (10 mg/kg daily in food; N=8), or vehicle (20 mM sodium acetate; N=14) for 10 days through osmotic minipumps (Alzet 2ML2, Durect Corp., Cupertino, Calif., USA). GW9662 treatment was started 1 day before and for the duration of relaxin treatment to ensure PPARγ was inhibited. Animals were anesthetized with 3% isoflurane and minipumps implanted subcutaneously in the back of the neck. All animals received post-surgical analgesic (buprenorphine, 50 μg/kg, s.c.). Relaxin infusion was continuous for 10 days until animals were euthanized for vessel experiments and tissue collection. The minipumps used were capable of delivering relaxin for 14 days and thus tissue collection was within this duration.
Determination of RXFP1 and PPARγ Target Gene Expression: MCA and PA from 4 untreated rats were collected to determine expression level of RXFP1, the primary relaxin receptor, using real-time qPCR methods. We also collected adipose tissue, pial arteries, and PA from vehicle, relaxin and relaxin+GW9662 groups (n=6 for each group) for determination of PPARγ target gene expression. All collected samples were stored in RNase inhibitor (1 unit/μl, RiboLock, Fermentas, Glen Burnie, Md., USA) at −80° C. for comparing expression of fatty acid translocase (FAT)/CD36 and liver X receptors-α (LXRα) for adipose tissue, and plasminogen activator inhibitor-1 (PAI-1) for vasculature. Standard techniques for real-time qPCR were performed by the Vermont Cancer Center DNA analysis facility at the University of Vermont, as described previously Cipolla et al. (2009) Stroke 40, 1451-1457. Briefly, RNA was extracted from tissues and concentration and integrity was determined by a NanoDrop ND-1000 Spectrophotometer (Wilmington, Del.) and an Agilent 2100 Bioanalyzer (Santa Clara, Calif., USA), respectively. Samples with low RNA quality were excluded. cDNA was then made by a SuperScript III Kit (Invitrogen, Carlsbad, Calif., USA). Real-time qPCR was set up as follows: 10 μL Universal PCR Master Mix (Applied Biosystems, Foster City, Calif., USA), 1 μL Assay on Demand (Applied Biosystems), 8 μL water, and 1 μL cDNA. β2-microglobulin (B2M, housekeeping control) and target genes were assessed using Assays on Demand from Applied Biosystems. […] Primers were designed across an exon-exon junction to avoid detecting genomic DNA. Thus, no DNase treatment of samples was necessary. All samples were run in duplicates using a 7900HT Sequence Detection System (Applied Biosystems). […]
Data Calculations and Statistical Analysis: Percent tone was calculated as percent decrease in ID from the passive diameter at each intravascular pressure: [1−(IDactive/IDpassive)]×100%. Outer diameter (OD) was calculated from measured ID and WT: ID+2WT. Cross-sectional area (CSA) of the wall was calculated as: [(OD/2)2−(ID/2)2]×π. Data from qPCR study were analyzed using the −2^ΔΔCT method, as described previously Livak et al. (2001) Methods 25, 402-408. […]

[2] = Conscious blood pressure, non-invasive tail-cuff method, SHR; settings: SHR-F, relaxin 4 μg/hr 14 days
Method: Systemic blood pressures were determined in all groups of animals using a non-invasive tail-cuff method (Chan, S. L., and Cipolla, M. J. (2011) Relaxin causes selective outward remodeling of brain parenchymal arterioles via activation of peroxisome proliferator-activated receptor-gamma. FASEB J 25, 3229-3239). For untreated WKY-F and SHR-F groups, blood pressures were measured on the day the animals were euthanized. For relaxin treated groups, blood pressures were measured on day 0 (baseline, before pump implant), 2, 7 and 14. All animals were trained for 3 days before actual blood pressure measurements were taken.

[3] = tested on: middle cerebral arteries (MCA); assay: Pressurized arteriograph: vascular reactivity and structure of MCA from relaxin-treated NP Sprague Dawley rats; settings: relaxin- vs vehicle-treated NP rats
Source text: as §1, with “Relaxin infusion was continuous for 10 days until animals were euthanized for vessel experiments and tissue collection. The minipumps used were capable of delivering relaxin for 14 days and thus tissue collection was within this duration.” left out
Vessel Preparation and Pressurized Arteriograph System: After collecting trunk blood, the brain was quickly removed and placed in cold physiological salt solution (PSS). […] Temperature and pH were continuously measured and maintained at 37.0±0.5° C. and 7.40±0.05, respectively. […]
Vascular Reactivity and Structural Characteristics in PA and MCA: For the first set of experiments, PA and MCA were equilibrated for 1 hour at 25 mmHg, after which myogenic activity was determined by stepwise increases in pressure from 40 to 100 mmHg for PA or 50 to 175 mmHg for MCA. ID and WT were measured at each pressure once stable. Changes in ID and WT were measured in PA only in response to small- (SKCa) and intermediate- (IKCa) conductance calcium-activated potassium channels blockers, apamin (3×10^−7 M) and TRAM-34 (10^−6 M), respectively. […] We therefore assessed the effect of relaxin on constriction of PA in response to SKCa/IKCa channel inhibition in order to assess this unique pathway. […]

relaxin
Gene expression of CD36 in adipose tissue ([1]; relaxin vs vehicle, NP rats): decreased | PAI-1 expression in pial arteries ([1]; relaxin vs vehicle, NP rats): did not significantly change | PAI-1 expression in PA ([1]; relaxin vs vehicle, NP rats, low sample numbers): did not significantly change | Gene expression of LXR-α in adipose tissue ([1]; similar trend as CD36 (decrease with relaxin, normalized by GW9662)): not statistically significant | Blood pressure [2]: did not cause a lowering of blood pressure | Blood pressure ([2]; listed as Relaxin): did not affect | Structure of MCA [3]: no effect | Tone of MCA [3]: did not significantly affect | Active diameters of MCA ([3]; any pressure): no effect
